Where two headings read alike, the source gives them in different places.
Tests used:
[1] = test system: K-562; assay: Inhibition of cells growth by colorimetric (SRB) assay, K-562; conditions: SRB assay, 48 hours exposure; for GI50: read-out: GI50 K-562; for CC50: read-out: LC50 K-562
Outline: (§1)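 Read-out is sulforhodamine B protein stain (OD 490 nm) after cold TCA fixation, following 48 h continuous exposure to samples spanning 10 to 10^−8 μg/ml.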

[2] = test system: A-549; assay: Inhibition of cells growth by colorimetric (SRB) assay, A-549
Outline: as §1

[3] = test system: SK-MEL-28; assay: Inhibition of cells growth by colorimetric (SRB) assay, SK-MEL-28
Outline: as §1

[4] = test system: HT-29; assay: Inhibition of cells growth by colorimetric (SRB) assay, HT-29
Outline: as §1

[5] = test system: LoVo; assay: Inhibition of cells growth by colorimetric (SRB) assay, LoVo
Outline: as §1

[6] = test system: LoVo-Dox; assay: Inhibition of cells growth by colorimetric (SRB) assay, LoVo-Dox
Outline: as §1

[7] = test system: DU-145; assay: Inhibition of cells growth by colorimetric (SRB) assay, DU-145; conditions: for CC50: read-out: LC50 DU-145
Outline: as §1

[8] = test system: LNCaP; assay: Inhibition of cells growth by colorimetric (SRB) assay, LNCaP; conditions: SRB assay, 48 hours exposure; for GI50: read-out: GI50 LN-caP; for CC50: read-out: LC50 LN-caP
Outline: as §1

[9] = test system: SK-BR-3; assay: Inhibition of cells growth by colorimetric (SRB) assay, SK-BR-3
Outline: as §1

[10] = test system: IGROV-1; assay: Inhibition of cells growth by colorimetric (SRB) assay, IGROV-1
Outline: as §1

[11] = test system: IGROV-ET; assay: Inhibition of cells growth by colorimetric (SRB) assay, IGROV-ET; conditions: for GI50: read-out: GI50 IGROV-ET
Outline: as §1

[12] = test system: SK-OV-3; assay: Inhibition of cells growth by colorimetric (SRB) assay, SK-OV-3; conditions: SRB assay, 48 hours exposure; for GI50: read-out: GI50 SKOV-3
Outline: as §1

[13] = test system: PANC-1; assay: Inhibition of cells growth by colorimetric (SRB) assay, PANC-1
Outline: as §1

[14] = Inhibition of cells growth by colorimetric (SRB) assay, HMEC1; conditions: human, HMEC1 cells, LC50 H-MEC-1, SRB assay, 48 hours exposure
[15] = test system: HMEC1; assay: as above; conditions: for GI50: Homo sapiens, HMEC-1, 48 h, read-out: GI50 H-MEC-1, SRB assay, 48 hours exposure; for TGI H-MEC-1: SRB assay, 48 hours exposure, in M (unit assumed)

## Cl.Nc1nccc2c(-c3ccncn3)c3c(O)ccnc3n12 [Compound 101]
[1]
  TGI K-562: 1.79E−05
  GI50: 5550 nM
  CC50: ≥ 33900 nM
[2]; SRB assay, 48 hours exposure
  TGI A-549: 1.09E−05
[2]; read-out: GI50 A-549, SRB assay, 48 hours exposure
  GI50: 2390 nM
[2]; read-out: LC50 A-549, SRB assay, 48 hours exposure
  CC50: ≥ 33900 nM
[3]; SRB assay, 48 hours exposure
  TGI MEL-28: 1.07E−05
[3]; read-out: GI50 MEL-28, SRB assay, 48 hours exposure
  GI50: 5220 nM
[3]; read-out: LC50 MEL-28, SRB assay, 48 hours exposure
  CC50: 21900 nM
[4]; SRB assay, 48 hours exposure
  TGI HT-29: 2.35E−05
[4]; read-out: GI50 HT-29, SRB assay, 48 hours exposure
  GI50: 8870 nM
[4]; read-out: LC50 HT-29, SRB assay, 48 hours exposure
  CC50: ≥ 33900 nM
[5]; SRB assay, 48 hours exposure
  TGI LOVO: 1.41E−05
[5]; read-out: GI50 LOVO, SRB assay, 48 hours exposure
  GI50: 3520 nM
[5]; read-out: LC50 LOVO, SRB assay, 48 hours exposure
  CC50: ≥ 33900 nM
[6]; SRB assay, 48 hours exposure
  TGI LOVO-DOX: 1.59E−05
[6]; read-out: GI50 LOVO-DOX, SRB assay, 48 hours exposure
  GI50: 2350 nM
[6]; read-out: LC50 LOVO-DOX, SRB assay, 48 hours exposure
  CC50: ≥ 33900 nM
[7]; SRB assay, 48 hours exposure
  TGI DU-145: 1.80E−06
  CC50: ≥ 30300 nM
[7]; read-out: GI50 DU-145, SRB assay, 48 hours exposure
  GI50: 118 nM
[8]
  TGI LN-caP: 1.32E−07
  GI50: 22.4 nM
  CC50: 4740 nM
[9]; SRB assay, 48 hours exposure
  TGI SK-BR-3: 8.77E−07
[9]; read-out: GI50 SK-BR-3, SRB assay, 48 hours exposure
  GI50: 128 nM
[9]; read-out: LC50 SK-BR-3, SRB assay, 48 hours exposure
  CC50: 10200 nM
[10]; SRB assay, 48 hours exposure
  TGI IGROV: 1.06E−05
[10]; read-out: GI50 IGROV, SRB assay, 48 hours exposure
  GI50: 3790 nM
[10]; read-out: LC50 IGROV, SRB assay, 48 hours exposure
  CC50: 29600 nM
[11]; SRB assay, 48 hours exposure
  TGI IGROV-ET: 2.08E−05
  GI50: 6600 nM
[11]; read-out: LC50 IGROV-ET, SRB assay, 48 hours exposure
  CC50: ≥ 33900 nM
[12]
  TGI SKOV-3: 1.41E−05
  GI50: 4440 nM
[12]; read-out: LC50 SKOV-3
  CC50: ≥ 33900 nM
[13]; SRB assay, 48 hours exposure
  TGI PANC-1: 4.88E−06
[13]; read-out: GI50 PANC-1, SRB assay, 48 hours exposure
  GI50: 149 nM
[13]; read-out: LC50 PANC-1, SRB assay, 48 hours exposure
  CC50: ≥ 33900 nM
[14]
  CC50 at 48 h: 44.4 nM
[15]
  GI50: 6.77 nM
  TGI H-MEC-1: 1.57E−08

## CCOc1nccc(-c2c3cccnc3n3c(N)nccc23)n1.Cl [Compound 82]
[1]
  TGI K-562: 7.32E−07
  GI50: 531 nM
  CC50: 1010 nM
[2]; Homo sapiens, A549, 48 h, read-out: GI50 A-549, SRB assay, 48 hours exposure
  GI50: 29200 nM
[2]; Homo sapiens, A549, 48 h, read-out: LC50 A-549, SRB assay, 48 hours exposure
  CC50: 29200 nM
[2]; SRB assay, 48 hours exposure
  TGI A-549: 2.92E−05
[3]; Homo sapiens, SK-MEL-28, 48 h, read-out: GI50 MEL-28, SRB assay, 48 hours exposure
  GI50: 365 nM
[3]; Homo sapiens, SK-MEL-28, 48 h, read-out: LC50 MEL-28, SRB assay, 48 hours exposure
  CC50: 1730 nM
[3]; SRB assay, 48 hours exposure
  TGI MEL-28: 7.93E−07
[4]; Homo sapiens, HT-29, 48 h, read-out: GI50 HT-29, SRB assay, 48 hours exposure
  GI50: 712 nM
[4]; SRB assay, 48 hours exposure
  TGI HT-29: 2.92E−06
[5]; Homo sapiens, LoVo, 48 h, read-out: GI50 LOVO, SRB assay, 48 hours exposure
  GI50: 665 nM
[5]; Homo sapiens, LoVo, 48 h, read-out: LC50 LOVO, SRB assay, 48 hours exposure
  CC50: 29200 nM
[5]; SRB assay, 48 hours exposure
  TGI LOVO: 2.15E−06
[6]; Homo sapiens, 48 h, read-out: GI50 LOVO-DOX, SRB assay, 48 hours exposure
  GI50: 700 nM
[6]; Homo sapiens, 48 h, read-out: LC50 LOVO-DOX, SRB assay, 48 hours exposure
  CC50: 12100 nM
[6]; SRB assay, 48 hours exposure
  TGI LOVO-DOX: 2.72E−06
[7]; Homo sapiens, DU-145, 48 h, read-out: GI50 DU-145, SRB assay, 48 hours exposure
  GI50: 715 nM
[7]; SRB assay, 48 hours exposure
  TGI DU-145: 1.51E−06
  CC50: 2920 nM
[8]
  TGI LN-caP: 1.57E−06
  GI50: 887 nM
  CC50: 2280 nM
[9]; Homo sapiens, SK-BR-3, 48 h, read-out: GI50 SK-BR-3, SRB assay, 48 hours exposure
  GI50: 560 nM
[9]; Homo sapiens, SK-BR-3, 48 h, read-out: LC50 SK-BR-3, SRB assay, 48 hours exposure
  CC50: 2260 nM
[9]; SRB assay, 48 hours exposure
  TGI SK-BR-3: 1.12E−06
[10]; Homo sapiens, IGROV-1, 48 h, read-out: GI50 IGROV, SRB assay, 48 hours exposure
  GI50: 971 nM
[10]; Homo sapiens, IGROV-1, 48 h, read-out: LC50 IGROV, SRB assay, 48 hours exposure
  CC50: 29200 nM
[10]; SRB assay, 48 hours exposure
  TGI IGROV: 1.76E−06
[11]; Homo sapiens, 48 h, read-out: LC50 IGROV-ET, SRB assay, 48 hours exposure
  CC50: 29200 nM
[11]; SRB assay, 48 hours exposure
  TGI IGROV-ET: 2.32E−07
  GI50: 89 nM
[12]
  TGI SKOV-3: 2.91E−06
  GI50: 992 nM
[13]; Homo sapiens, PANC-1, 48 h, read-out: GI50 PANC-1, SRB assay, 48 hours exposure
  GI50: 1030 nM
[13]; Homo sapiens, PANC-1, 48 h, read-out: LC50 PANC-1, SRB assay, 48 hours exposure
  CC50: 29200 nM
[13]; SRB assay, 48 hours exposure
  TGI PANC-1: 6.77E−06
[14]
  CC50 at 48 h: 1550 nM
[15]
  GI50: 341 nM
  TGI H-MEC-1: 7.29E−07
